Assays:
[1] = system: store-operated calcium entry in RBL-2H3 cells; assay: Fluorescence-based assay of store-operated calcium entry in RBL-2H3 cells; type: cell-based; conditions: Rattus norvegicus, thapsigargin, FLIPR Fluo-4, read-out: RBL-2H3 (IC50, μmol)
Description: B. Fluorescence-Based Assay of Store-Operated Calcium Entry in RBL-2H3 Cells.
RBL-2H3 cells are obtained from ATCC and maintained in complete medium with 10% FBS at 37° C./6% CO2.
The day prior to performing the assay, RBL-2H3 cells are plated in 50 μL of complete medium in a 384 well plate. Cells are grown at 37° C./6% CO2 overnight and grow to 50-60% confluence by the next day. On the assay day, 1.5 μM Fluo-4-AM dye (Invitrogen) in complete medium is added and incubated for 1 hour at RT. Cells are washed twice in Ca^2+-free HBSS buffer and 35 μL Ca^2+-free HBSS buffer is added to each well. 10 μL of a test compound prepared in a Ca^2+-free HBSS solution at 4.5× of the desired concentration is added to a well and incubated for 5 minutes at RT. 10 μL of thapsigargin prepared in a Ca^2+-free HBSS solution at 5.5× of the desired concentration (5.5 uM) is added to each well and incubated for an additional 25 minutes. The initial baseline fluorescence signal is measured with a FLIPR^384 (Molecular Devices) plate reader. 5 μL of 12× calcium in HBSS (12 mM) is added and changes in cellular fluorescence are measured with the FLIPR^384 plate reader. In each well, the change in the fluorescent signal as a function of time due to calcium entry into the cell is determined by calculating the difference between the fluorescent signal measured 7 seconds after calcium addition and the initial baseline fluorescence signal at time zero (t=0). This parameter is designated Upslope. The IC50 value is calculated as the concentration at which 50% of the Upslope is inhibited.

[2] = molecular target: T1, recombinant human STIM1 and Orai1 (HEK-293 cells) (Homo sapiens, UniProt Q96D31); assay: Fluorescence-based assay of store-operated calcium entry in Orai1/STIM1 stable cells; type: cell-based; parameters: key to Orai1/STIM1 (IC50, μmol): A < 0.6 μmol; 0.6 μmol ≦ B ≦ 1.2 μmol; C > 1.2 μmol; — = no fit; conditions: for IC50: FLIPR fluo-4, read-out: Orai1/STIM1 (IC50, μmol); for Orai1/STIM1 (IC50, μmol): FLIPR fluo-4
T1 construct: expressed in transfected cells; host or cells: HEK-293 cells stably expressing both proteins
T1 sequence (Q96D31 whole entry): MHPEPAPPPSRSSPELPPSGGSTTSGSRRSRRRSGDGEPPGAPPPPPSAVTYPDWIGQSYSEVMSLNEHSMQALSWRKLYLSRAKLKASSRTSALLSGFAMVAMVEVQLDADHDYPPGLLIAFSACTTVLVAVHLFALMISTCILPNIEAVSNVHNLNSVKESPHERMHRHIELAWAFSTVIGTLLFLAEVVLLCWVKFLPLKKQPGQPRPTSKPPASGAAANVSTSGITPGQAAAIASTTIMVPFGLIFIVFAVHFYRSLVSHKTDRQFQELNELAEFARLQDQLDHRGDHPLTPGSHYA
Description: A. Fluorescence-Based Assay of Store-Operated Calcium Entry in Orai1/STIM1 Stable Cells.
Cells stably expressing recombinant human STIM1 and Orai1 are generated by transfecting a human Orai1 expression plasmid (pcDNA3.1-Orai1-cmyc) into HEK-293 cells stably overexpressing human STIM1 (Roos et al. 2005 JCB 169(3): 435-445). Colonies of cells stably expressing both STIM1 and Orai1 proteins are selected and then subcloned by limiting dilution. Cells were cultured at 37° C./6% CO2 in complete medium with 10% FBS and appropriate selection markers.
The day prior to performing the assay Orai1/STIM1 stable cells are plated in 50 μL of complete medium at 90-95% confluence in a 384 well plate. Cells are grown at 37° C./6% CO2 overnight. On the day of the assay, 1.5 μM fluo-4-AM (Invitrogen) in complete medium is added to the cells, which are then incubated for 1 hour at RT. Cells are washed once in Ca^2+-free HBSS (Hank's buffered saline solution) and 35 μl of Ca^2+-free HBSS is added to each well. Test compounds are added to wells in a 10 μL Ca^2+-free HBSS solution, prepared at 4.5× the desired final concentration, and incubated for 30 minutes at RT. The initial baseline fluorescence signal is then measured with a FLIPR^384 (Molecular Devices) plate reader. Calcium entry is initiated by adding 5 μl of 10× CaCl2 (10 mM) in HBSS, and changes in cellular fluorescence are measured with the FLIPR^384 plate reader. In each well, the magnitude of the fluorescence signal as a result of calcium entry into the cell is determined by calculating the difference between the peak fluorescence signal measured after calcium addition and the initial baseline fluorescence signal (designated Peak-Basal). IC50 values are typically calculated as the concentration that inhibited 50% of the Peak-Basal signal (Table A).

SMILES | IC50 [1] [nM] | IC50 [2] [nM] | Orai1/STIM1 (IC50, μmol) [2]
Cn1cccc1C(=O)Nc1ccc(-c2cc3c(cc2Cl)OC(F)(F)O3)cn1 [Example 1, N-(5-(6-chloro-2,2-difluorobenzo[d][1,3]dioxol-5-yl)pyridin-2-yl)-1-methyl-1H-pyrrole-2-carboxamide] | 600 to 1200 | 600 to 1200 | 
Cc1cc2c(cc1-c1cnc(NC(=O)c3c(Cl)c(C(F)(F)F)nn3C)cn1)OC(F)(F)O2 [Example 37, 4-chloro-N-(5-(2,2-difluoro-6-methylbenzo[d][1,3]dioxol-5-yl)pyrazin-2-yl)-1-methyl-3-(trifluoromethyl)-1H-pyrazole-5-carboxamide] | < 600 | 600 to 1200 | 
Cn1nc(C(F)(F)F)cc1-c1cnc(NC(=O)c2c(Cl)c(C(F)(F)F)nn2C)cn1 [Example 41, 4-chloro-1-methyl-N-(5-(1-methyl-3-(trifluoromethyl)-1H-pyrazol-5-yl)pyrazin-2-yl)-3-(trifluoromethyl)-1H-pyrazole-5-carboxamide] | > 1200 | > 1200 | 
O=C(Nc1ccc(-c2cc3c(cc2Cl)OC(F)(F)O3)cn1)c1nsc(Cl)c1Cl [Example 16, 4,5-dichloro-N-(5-(6-chloro-2,2-difluorobenzo[d][1,3]dioxol-5-yl)pyridin-2-yl)isothiazole-3-carboxamide] | > 1200 |  | —
Cn1ncc(Cl)c1C(=O)Nc1cnc(-c2cc3c(cc2Cl)OC(F)(F)O3)cn1 [Example 29, 4-chloro-N-(5-(6-chloro-2,2-difluorobenzo[d][1,3]dioxol-5-yl)pyrazin-2-yl)-1-methyl-1H-pyrazole-5-carboxamide] | < 600 | < 600 | 
CCc1nnsc1C(=O)Nc1ccc(-c2cc3c(cc2Cl)OC(F)(F)O3)cn1 [Example 14, N-(5-(6-chloro-2,2-difluorobenzo[d][1,3]dioxol-5-yl)pyridin-2-yl)-4-ethyl-1,2,3-thiadiazole-5-carboxamide] | < 600 | < 600 | 
Cc1cc(C(=O)Nc2cnc(-c3cc4c(cc3Cl)OC(F)(F)O4)cn2)n(C)n1 [Example 27, N-(5-(6-chloro-2,2-difluorobenzo[d][1,3]dioxol-5-yl)pyrazin-2-yl)-1,3-dimethyl-1H-pyrazole-5-carboxamide] | > 1200 | 600 to 1200 | 
Cc1noc(C)c1C(=O)Nc1cnc(-c2cc(C(F)(F)F)nn2C)cn1 [Example 42, 3,5-dimethyl-N-(5-(1-methyl-3-(trifluoromethyl)-1H-pyrazol-5-yl)pyrazin-2-yl)isoxazole-4-carboxamide] | > 1200 | > 1200 | 
Cn1cc(Cl)c(C(=O)Nc2ccc(-c3cc4c(cc3Cl)OC(F)(F)O4)cn2)n1 [Example 8, 4-chloro-N-(5-(6-chloro-2,2-difluorobenzo[d][1,3]dioxol-5-yl)pyridin-2-yl)-1-methyl-1H-pyrazole-3-carboxamide] | > 1200 | > 1200 | 
Cc1onc(C(=O)Nc2cnc(-c3cc4c(cc3Cl)OC(F)(F)O4)cn2)c1C [Example 25, N-(5-(6-chloro-2,2-difluorobenzo[d][1,3]dioxol-5-yl)pyrazin-2-yl)-4,5-dimethylisoxazole-3-carboxamide] | < 600 | 600 to 1200 | 
Cc1noc(C)c1C(=O)Nc1cnc(-c2cc3c(cc2Cl)OC(F)(F)O3)cn1 [Example 31, N-(5-(6-chloro-2,2-difluorobenzo[d][1,3]dioxol-5-yl)pyrazin-2-yl)-3,5-dimethylisoxazole-4-carboxamide] | < 600 | 600 to 1200 | 
Cn1ncc(Cl)c1C(=O)Nc1ccc(-c2cc3c(cc2Cl)OC(F)(F)O3)cn1 [Example 9, 4-chloro-N-(5-(6-chloro-2,2-difluorobenzo[d][1,3]dioxol-5-yl)pyridin-2-yl)-1-methyl-1H-pyrazole-5-carboxamide] | < 600 | 600 to 1200 | 
Cc1cc(C(=O)Nc2ccc(-c3cc4c(cc3Cl)OC(F)(F)O4)cn2)n(C)n1 [Example 7, N-(5-(6-chloro-2,2-difluorobenzo[d][1,3]dioxol-5-yl)pyridin-2-yl)-1,3-dimethyl-1H-pyrazole-5-carboxamide] | > 1200 | 600 to 1200 | 
Cc1nn(C)c(C(=O)Nc2ccc(-c3cc4c(cc3Cl)OC(F)(F)O4)cn2)c1Cl [Example 2, 4-chloro-N-(5-(6-chloro-2,2-difluorobenzo[d][1,3]dioxol-5-yl)pyridin-2-yl)-1,3-dimethyl-1H-pyrazole-5-carboxamide] | > 1200 | > 1200 | 
Cn1nc(C(F)(F)F)c(Cl)c1C(=O)Nc1cnc(-c2cc3c(cc2Cl)OC(F)(F)O3)cn1 [Example 24, 4-chloro-N-(5-(6-chloro-2,2-difluorobenzo[d][1,3]dioxol-5-yl)pyrazin-2-yl)-1-methyl-3-(trifluoromethyl)-1H-pyrazole-5-carboxamide] | < 600 |  | —
CCn1nc(C)cc1C(=O)Nc1ccc(-c2cc3c(cc2Cl)OC(F)(F)O3)cn1 [Example 6, N-(5-(6-chloro-2,2-difluorobenzo[d][1,3]dioxol-5-yl)pyridin-2-yl)-1-ethyl-3-methyl-1H-pyrazole-5-carboxamide] | > 1200 | > 1200 | 
Cc1cnoc1C(=O)Nc1ccc(-c2cc3c(cc2Cl)OC(F)(F)O3)cn1 [Example 20, N-(5-(6-chloro-2,2-difluorobenzo[d][1,3]dioxol-5-yl)pyridin-2-yl)-4-methylisoxazole-5-carboxamide] | < 600 | < 600 | 
O=C(Nc1ncc(Oc2ccccc2C(F)(F)F)s1)c1c(F)cccc1F [Example 43, (2,6-difluorophenyl)-N-{5-[2-(trifluoromethyl)phenoxy](1,3-thiazol-2-yl)}carboxamide] | 600 to 1200 | > 1200 | 

Source: patent US9856240B2, “Compounds that modulate intracellular calcium” (CalciMedica, Inc., priority 2011, dated 2018)
